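Values below derive from 48-hour exposures of cells grown in 96-well plates, with endpoints linearly interpolated between the two concentrations bracketing the appropriate inhibition level. The concentration for 50% growth inhibition is given as GI50. At the TGI there is no net growth.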
Key:
Assay in all cases: inhibition of tumour cell growth, NCI panel, 48 h
MCF7 breast = system: MCF7 breast
HOP-92 NSCLC = system: HOP-92 NSCLC
K-562 leukemia = system: K-562 leukemia
U251 CNS = system: U251 CNS
CCRF-CEM leukemia = system: CCRF-CEM leukemia
OVCAR-3 ovarian = system: OVCAR-3 ovarian
UACC-62 melanoma = system: UACC-62 melanoma
NCI/ADR-RES ovarian = system: NCI/ADR-RES ovarian
SN12C renal = system: SN12C renal
BT-549 breast = system: BT-549 breast
ACHN renal = system: ACHN renal
A549 NSCLC = system: A549 NSCLC
SF-295 CNS = system: SF-295 CNS
UACC-257 melanoma = system: UACC-257 melanoma
NCI-H226 lung = system: NCI-H226 lung
SK-OV-3 ovarian = system: SK-OV-3 ovarian
OVCAR-8 ovarian = system: OVCAR-8 ovarian
MDA-MB-231 breast = system: MDA-MB-231 breast
HCT-15 colon = system: HCT-15 colon
CAKI-1 renal = system: CAKI-1 renal
COLO 205 colon = system: COLO 205 colon
A498 renal = system: A498 renal
IGROV1 ovarian = system: IGROV1 ovarian
DU-145 prostate = system: DU-145 prostate
LOX IMVI melanoma = system: LOX IMVI melanoma
NCI-H522 lung = system: NCI-H522 lung
OVCAR-4 ovarian = system: OVCAR-4 ovarian
NCI-H23 lung = system: NCI-H23 lung
MALME-3M melanoma = system: MALME-3M melanoma
786-0 renal = system: 786-0 renal
MDA-N = system: MDA-N
RPMI-8226 leukemia = system: RPMI-8226 leukemia
KM12 colon = system: KM12 colon
MOLT-4 leukemia = system: MOLT-4 leukemia
MDA-MB-435 = system: MDA-MB-435
SW-620 colon = system: SW-620 colon
OVCAR-5 ovarian = system: OVCAR-5 ovarian
EKVX NSCLC = system: EKVX NSCLC
HCC-2998 colon = system: HCC-2998 colon
RXF 393 renal = system: RXF 393 renal
UO-31 renal = system: UO-31 renal
SR leukemia = system: SR leukemia
HL-60(TB) leukemia = system: HL-60(TB) leukemia
SK-MEL-5 melanoma = system: SK-MEL-5 melanoma
HCT-116 colon = system: HCT-116 colon
SF-539 CNS = system: SF-539 CNS
PC-3 prostate = system: PC-3 prostate
SK-MEL-2 melanoma = system: SK-MEL-2 melanoma
M14 melanoma = system: M14 melanoma
TK-10 renal = system: TK-10 renal
NCI-H460 lung = system: NCI-H460 lung
SK-MEL-28 melanoma = system: SK-MEL-28 melanoma
HOP-62 NSCLC = system: HOP-62 NSCLC
HS 578T breast = system: HS 578T breast
T-47D breast = system: T-47D breast
SNB-19 CNS = system: SNB-19 CNS
HT29 colon = system: HT29 colon
SNB-75 CNS = system: SNB-75 CNS
SF-268 CNS = system: SF-268 CNS

Work on `CCOC(=O)/C(C#N)=C/Nc1c(C)n(C)n(-c2ccccc2)c1=O` yielded a TGI (MCF7 breast) greater than 100 µM, a TGI (HOP-92 NSCLC) greater than 100 µM and a TGI (K-562 leukemia) greater than 100 µM. The TGI (U251 CNS) was greater than 100 µM, the TGI (CCRF-CEM leukemia) was greater than 100 µM and the TGI (OVCAR-3 ovarian) was greater than 100 µM. It also gave a TGI (UACC-62 melanoma) greater than 100 µM, a TGI (NCI/ADR-RES ovarian) greater than 100 µM and a TGI (SN12C renal) greater than 100 µM. For the same compound, the TGI (BT-549 breast) was greater than 100 µM, the TGI (ACHN renal) was greater than 100 µM and the TGI (A549 NSCLC) was greater than 100 µM. The TGI (SF-295 CNS) was greater than 100 µM, the TGI (UACC-257 melanoma) was greater than 100 µM and the TGI (NCI-H226 lung) was greater than 100 µM. It also gave a TGI (SK-OV-3 ovarian) greater than 100 µM, a TGI (OVCAR-8 ovarian) greater than 100 µM and a TGI (MDA-MB-231 breast) greater than 100 µM. The TGI (HCT-15 colon) was greater than 100 µM, the TGI (CAKI-1 renal) was greater than 100 µM and the TGI (COLO 205 colon) was greater than 100 µM. The TGI (A498 renal) was greater than 100 µM, the TGI (IGROV1 ovarian) was greater than 100 µM and the TGI (DU-145 prostate) was greater than 100 µM. The TGI (LOX IMVI melanoma) was greater than 100 µM, the TGI (NCI-H522 lung) was greater than 100 µM and the TGI (OVCAR-4 ovarian) was greater than 100 µM. The TGI (NCI-H23 lung) was greater than 100 µM, the TGI (MALME-3M melanoma) was greater than 100 µM and the TGI (786-0 renal) was greater than 100 µM. For the same compound, the TGI (MDA-N) was greater than 100 µM, the TGI (RPMI-8226 leukemia) was greater than 100 µM and the TGI (KM12 colon) was greater than 100 µM. It also gave a TGI (MOLT-4 leukemia) greater than 100 µM, a TGI (MDA-MB-435) greater than 100 µM and a TGI (SW-620 colon) greater than 100 µM. The TGI (OVCAR-5 ovarian) was greater than 100 µM, the TGI (EKVX NSCLC) was greater than 100 µM and the TGI (HCC-2998 colon) was greater than 100 µM. For the same compound, the TGI (RXF 393 renal) was greater than 100 µM, the TGI (UO-31 renal) was greater than 100 µM and the TGI (SR leukemia) was greater than 100 µM. The TGI (HL-60(TB) leukemia) was greater than 100 µM, the TGI (SK-MEL-5 melanoma) was greater than 100 µM and the TGI (HCT-116 colon) was greater than 100 µM. The TGI (SF-539 CNS) was greater than 100 µM, the TGI (PC-3 prostate) was greater than 100 µM and the TGI (SK-MEL-2 melanoma) was greater than 100 µM. It also gave a TGI (M14 melanoma) greater than 100 µM and a TGI (TK-10 renal) greater than 100 µM.

With `CCS(=O)(=O)c1ccc(OC)c(Nc2ncc(-c3cccc(OC)c3)o2)c1` the GI50 (MCF7 breast) was greater than 18.3 µM, the TGI (MCF7 breast) was greater than 25 µM and the GI50 (NCI-H460 lung) was 11.9 µM. It also gave a TGI (NCI-H460 lung) greater than 25 µM, a GI50 (HOP-92 NSCLC) of 2.76 µM and a TGI (HOP-92 NSCLC) of 9.17 µM. It also gave a GI50 (K-562 leukemia) of 4.34 µM, a TGI (K-562 leukemia) greater than 25 µM and a GI50 (U251 CNS) of 8.09 µM. It also gave a TGI (U251 CNS) greater than 25 µM, a GI50 (CCRF-CEM leukemia) of 10.7 µM and a TGI (CCRF-CEM leukemia) greater than 25 µM. The GI50 (SK-MEL-28 melanoma) was greater than 20.6 µM, the TGI (SK-MEL-28 melanoma) was greater than 25 µM and the GI50 (OVCAR-3 ovarian) was 9.92 µM. It also gave a TGI (OVCAR-3 ovarian) greater than 25 µM, a GI50 (UACC-62 melanoma) of 9.52 µM and a TGI (UACC-62 melanoma) greater than 25 µM. It also gave a GI50 (NCI/ADR-RES ovarian) of 9.38 µM, a TGI (NCI/ADR-RES ovarian) greater than 25 µM and a GI50 (SN12C renal) of 8.3 µM. It also gave a TGI (SN12C renal) greater than 25 µM, a GI50 (BT-549 breast) of 14.6 µM and a TGI (BT-549 breast) greater than 25 µM. For the same compound, the GI50 (ACHN renal) was 6.61 µM, the TGI (ACHN renal) was greater than 25 µM and the GI50 (A549 NSCLC) was 8.75 µM. It also gave a TGI (A549 NSCLC) greater than 25 µM, a GI50 (SF-295 CNS) of 9.72 µM and a TGI (SF-295 CNS) greater than 25 µM. The GI50 (UACC-257 melanoma) was greater than 22.2 µM, the TGI (UACC-257 melanoma) was greater than 25 µM and the GI50 (NCI-H226 lung) was 4.65 µM. It also gave a TGI (NCI-H226 lung) greater than 23.6 µM, a GI50 (HOP-62 NSCLC) of 9.41 µM and a TGI (HOP-62 NSCLC) greater than 25 µM. For the same compound, the GI50 (HS 578T breast) was 5.48 µM, the TGI (HS 578T breast) was 17.6 µM and the GI50 (SK-OV-3 ovarian) was 9.92 µM. The TGI (SK-OV-3 ovarian) was greater than 25 µM, the GI50 (OVCAR-8 ovarian) was 9.66 µM and the TGI (OVCAR-8 ovarian) was greater than 25 µM. It also gave a GI50 (MDA-MB-231 breast) of 8.54 µM, a TGI (MDA-MB-231 breast) greater than 25 µM and a GI50 (HCT-15 colon) of 10.6 µM. For the same compound, the TGI (HCT-15 colon) was greater than 25 µM, the GI50 (CAKI-1 renal) was 8.58 µM and the TGI (CAKI-1 renal) was greater than 25 µM. The GI50 (COLO 205 colon) was 10.3 µM, the TGI (COLO 205 colon) was greater than 25 µM and the GI50 (A498 renal) was 0.728 µM. It also gave a TGI (A498 renal) of 4.28 µM, a GI50 (IGROV1 ovarian) of 6.8 µM and a TGI (IGROV1 ovarian) greater than 20.7 µM. It also gave a GI50 (DU-145 prostate) of 9.99 µM, a TGI (DU-145 prostate) greater than 25 µM and a GI50 (LOX IMVI melanoma) of 6.12 µM. For the same compound, the TGI (LOX IMVI melanoma) was 24.8 µM, the GI50 (NCI-H522 lung) was 8.58 µM and the TGI (NCI-H522 lung) was 22.5 µM. The GI50 (OVCAR-4 ovarian) was 13.5 µM, the TGI (OVCAR-4 ovarian) was greater than 25 µM and the GI50 (NCI-H23 lung) was 8.3 µM. The TGI (NCI-H23 lung) was greater than 25 µM, the GI50 (MALME-3M melanoma) was greater than 25 µM and the TGI (MALME-3M melanoma) was greater than 25 µM. The GI50 (786-0 renal) was 9.57 µM, the TGI (786-0 renal) was greater than 25 µM and the GI50 (RPMI-8226 leukemia) was greater than 16.5 µM. It also gave a TGI (RPMI-8226 leukemia) greater than 25 µM, a GI50 (T-47D breast) of 8.18 µM and a TGI (T-47D breast) greater than 25 µM. It also gave a GI50 (KM12 colon) of 1.06 µM, a TGI (KM12 colon) greater than 25 µM and a GI50 (MOLT-4 leukemia) of 13.5 µM. It also gave a TGI (MOLT-4 leukemia) greater than 25 µM, a GI50 (MDA-MB-435) of 18.2 µM and a TGI (MDA-MB-435) greater than 25 µM. For the same compound, the GI50 (SW-620 colon) was 9.09 µM, the TGI (SW-620 colon) was greater than 25 µM and the GI50 (SNB-19 CNS) was 12 µM. The TGI (SNB-19 CNS) was greater than 25 µM, the GI50 (OVCAR-5 ovarian) was 9.03 µM and the TGI (OVCAR-5 ovarian) was greater than 25 µM. The GI50 (EKVX NSCLC) was 18.9 µM, the TGI (EKVX NSCLC) was greater than 25 µM and the GI50 (HCC-2998 colon) was 23 µM. For the same compound, the TGI (HCC-2998 colon) was greater than 25 µM, the GI50 (RXF 393 renal) was 5.83 µM and the TGI (RXF 393 renal) was 19.7 µM. For the same compound, the GI50 (UO-31 renal) was 3.4 µM, the TGI (UO-31 renal) was 13.8 µM and the GI50 (SR leukemia) was 9.33 µM. It also gave a TGI (SR leukemia) of 24.3 µM, a GI50 (HL-60(TB) leukemia) of 16.4 µM and a TGI (HL-60(TB) leukemia) greater than 25 µM. It also gave a GI50 (SK-MEL-5 melanoma) of 10 µM, a TGI (SK-MEL-5 melanoma) greater than 25 µM and a GI50 (HCT-116 colon) of 8.1 µM. For the same compound, the TGI (HCT-116 colon) was greater than 25 µM, the GI50 (HT29 colon) was 10.8 µM and the TGI (HT29 colon) was greater than 25 µM. For the same compound, the GI50 (SF-539 CNS) was 6.96 µM, the TGI (SF-539 CNS) was greater than 25 µM and the GI50 (SNB-75 CNS) was 6.26 µM. The TGI (SNB-75 CNS) was greater than 18.2 µM, the GI50 (PC-3 prostate) was 8.61 µM and the TGI (PC-3 prostate) was greater than 25 µM. For the same compound, the GI50 (SK-MEL-2 melanoma) was 13.2 µM, the TGI (SK-MEL-2 melanoma) was greater than 25 µM and the GI50 (M14 melanoma) was 14.6 µM. For the same compound, the TGI (M14 melanoma) was greater than 25 µM, the GI50 (TK-10 renal) was 6.5 µM and the TGI (TK-10 renal) was 18.6 µM. The GI50 (SF-268 CNS) was 8.84 µM and the TGI (SF-268 CNS) was greater than 25 µM.

— PubChem BioAssay (NCI)
